From patent US5227384A, “5-substituted [4,5-c] imidazopyridines and pharmaceutical use thereof” (G. D. Searle & Co., priority 1991, dated 1993)
pIC50: −log10 of the molar value.

Tests used:
[1] = tested on: rabbit platelets; assay: PAF-induced platelet secretion ([^3 H]serotonin); type: cell-based; settings: Oryctolagus cuniculus, washed [^3 H]serotonin-labeled rabbit platelets, 60 sec after PAF, IC50 by inspection of dose-response curves
Protocol: (§1) PAF-induced platelet aggregation and secretion: Washed, [^3 H]serotonin-labeled rabbit platelets were prepared as previously described in COX, C. P., J. LINDEN and S. I. SAID: VIP elevates platelet cyclic AMP (cAMP) levels and inhibits in vitro platelet activation induced by platelet-activating factor (PAF). Peptides 5:25-28, 1984, and maintained in an atmosphere of 5% CO2 at 37° C. until used in the bioassay. […] Aggregation was continuously monitored on a strip-chart recorder and recorded as the height of the tracing at 60 sec after the addition of PAF. Secretion of [^3 H]serotonin was measured in a sample of the platelet suspension removed at 60 sec after the addition of PAF. The percent inhibition of aggregation and secretion was calculated by comparing antagonist-treated platelets with the appropriate vehicle-treated control platelets. Each combination of antagonist and PAF was repeated 12-15 times, using several different platelet preparations. IC50 values were determined by inspection of the dose-response curves.

[2] = tested on: rabbit platelets; assay: PAF-induced platelet aggregation; type: cell-based; settings: Oryctolagus cuniculus, washed rabbit platelets, 60 sec after PAF, IC50 by inspection of dose-response curves
Protocol: as §1

[3] = target: PAF receptor (Human Platelet Membrane Receptors) (Homo sapiens, UniProt P25105)
Chain of PAF receptor (Human Platelet Membrane Receptors) (P25105 whole entry): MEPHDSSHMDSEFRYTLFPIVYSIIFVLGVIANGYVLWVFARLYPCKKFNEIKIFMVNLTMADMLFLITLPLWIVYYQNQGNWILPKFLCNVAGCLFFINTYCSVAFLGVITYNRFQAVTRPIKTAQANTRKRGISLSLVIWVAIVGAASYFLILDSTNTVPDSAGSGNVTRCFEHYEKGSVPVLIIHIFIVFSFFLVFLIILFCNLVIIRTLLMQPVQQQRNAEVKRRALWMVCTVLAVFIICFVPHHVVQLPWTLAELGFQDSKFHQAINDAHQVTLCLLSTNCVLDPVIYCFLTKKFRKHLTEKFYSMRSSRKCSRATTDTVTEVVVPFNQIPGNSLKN
Protocol: Inhibition of ^3 H-PAF Binding to Human Platelet Membrane Receptors
Receptor Preparation: Ten units of in-dated human packed platelets, each containing 45-65 ml platelet rich-plasma, were purchased from a commercial blood bank. Disposable plasticware was used throughout for receptor preparation. The units were pooled and a 1 ml aliquot was removed for determination of platelet concentration, using a Coulter Counter. The remaining platelet rich plasma was dispensed into 50 ml conical tubes and centrifuged at room temperature for 15 minutes at 3000 RPM (2300×g).Plasma was decanted and the platelets were resuspended in 35 ml of buffer 10 mM Trizma 7.0, 2 mM EDTA (dipotassium salt), and 150 mM KCl) and transferred to fresh tubes, which were centrifuged again as above. The platelets were washed 3 times, avoiding contaminating erythrocytes at the bottom of the pellets. Pellets were consolidated at each step, and by the last wash with EDTA/KCl buffer, most of the erythrocytes were in 1 tube. The pellets were resuspended in buffer containing 10 mM Trizma 7.0 with 10 mM CaCl2. Following centrifugation, the buffer was decanted and the pellets were resuspended in the CaCl2 buffer, avoiding erythrocyte contamination by recovering less than 100% of the platelet pellets. The resuspended platelets were dispensed in 8-10 ml aliquots into Corex tubes and disrupted by three cycles of freezing (dry ice/ethanol) and thawing (24° C.). The tubes were centrifuged at 40,000×g for 20 minutes at 4° C. Supernatants were decanted and each pellet was resuspended in 5-7 ml 10 mM Trizma 7.0. All resuspended pellets were pooled and aliquots of about 1200 ml were dispensed into 1.5 ml microfuge tubes and frozen at -70° C. Protein content was determined by a fluorescamine protein assay.
Assay Methods: Receptor Characterization--Each receptor preparation was evaluated to determine the number of receptor populations, the number of PAF receptor equivalents/mg protein and the dissociation constant (KD) for PAF binding. This required 2-3 experiments in which the protein concentration was held constant and the ^3 H-PAF ligand concentration was varied from approximately 0.10-2.5 nM and the data was analyzed by Scatchard methodology. Total incubation volume was 250 ml for these procedures and incubations were conducted at 24° C. for 30 minutes. For further experimentation, total incubation volumes are 500 ml. Protein and ligand concentrations were adjusted to give 0.075 nM receptor equivalents in the presence of 0.75 nM ^3 H-PAF. Each receptor preparation was then used to determine the dose--response displacement relationship of unlabeled PAF and the PAF antagonist, triazolam.
Assay Methods: Routine Assay of Compounds--The compounds were weighed precisely and solubilized in quantities of DMSO such that a 5 ml aliquot in the incubate would deliver the desired compound concentration. Compounds tested for the first time in this assay were evaluated at a concentration of 50 mM in the incubation medium. […] Triazolam was always included in each screening assay as a compound inhibition control. […] Nonspecific binding control solution was made by drying to completion about 26.2 ml unlabeled PAF under a stream of argon. PAF was resolubilized in 1000 ml DMSO. When delivered in a 5 ml aliquot, the final concentration of 1 mM PAF in the incubate exceeded by 1000-fold the concentration of ^3 H-PAF.
All buffers containing proteins were made at room temperature on the day of assay. Assay buffer was prepared by adding 125 mg human albumin to 25 ml of stock buffer (10 mM Trizma 7.4 with 20 mM CaCl2). Rinse buffer was made by adding 20 grams bovine serum albumin to i000 ml stock buffer. About 80 ml of rinse buffer was decanted into a small pyrex dish and used to soak 65 Whatman GF/C 2.5 cm glass filters. The remaining rinse buffer was poured into a repipet and placed into an ice bath along with the filters.

Work on `CN(C(=O)c1ccc(CCn2ccc3ncnc-3c2)cc1)C1CCCCC1` [5-[2-[4-(N-methyl-N-cyclohexylcarboxamido)phenyl]ethyl]imidazo[4,5-c]pyridine] yielded a pIC50 ([1]; 1 min) of 5.00 to 6.00 and a pIC50 ([2]; 1 min) of 4.00 to 5.00.

With `CC(C)N(C(=O)c1cccc(Cn2ccc3ncnc-3c2)c1)C1CCCCC1` [5-[3-(N-isopropyl-N-cyclohexylcarboxamido)benzyl]imidazo[4,5-c]pyridine] the pIC50 ([1]; 1 min) was 5.00 to 6.00 and the pIC50 ([2]; 1 min) was 4.00 to 4.30.

Work on `CN(C(=O)c1cccc(Cn2ccc3ncnc-3c2)c1)C1CCCCC1` [5-[3-(N-methyl-N-cyclohexylcarboxamido)benzyl]imidazo[4,5-c]pyridine] yielded a pIC50 ([1]; 1 min) of 4.00 to 5.00 and a pIC50 ([2]; 1 min) of 4.00 to 5.00.

`CN(C(=O)c1ccc(CCCn2ccc3ncnc-3c2)cc1)C1CCCCC1` [5-[3-[4-(N-methyl-N-cyclohexylcarboxamido)phenyl]propyl]imidazo[4,5-c]pyridine] was tested, and the pIC50 [3] was 4.21, the pIC50 ([1]; 1 min) was 5.00 to 6.00 and the pIC50 ([2]; 1 min) was 4.00 to 5.00.

`COc1cc(C(=O)N(C2CCCC2)C2CCCC2)ccc1Cn1ccc2ncnc-2c1` [5-[4-(N,N-dicyclopentylcarboxamido)-2-methoxybenzyl]imidazo[4,5-c]pyridine] showed a pIC50 ([1]; 1 min) of 8.00 to 9.00 and a pIC50 ([2]; 1 min) of 7.00 to 8.00.

For `Cc1nc2ccn(Cc3ccc(C(=O)N(C4CCCC4)C4CCCC4)cc3)cc-2n1` [5-[4-(N,N-dicyclopentylcarboxamido)benzyl]-2-methylimidazo[4,5-c]pyridine], the pIC50 ([1]; 1 min) was 6.00 to 7.00 and the pIC50 ([2]; 1 min) was 5.00 to 6.00.

`Cc1c2ncnc-2ccn1Cc1ccc(C(=O)N(C2CCCC2)C2CCCC2)cc1` [5-[4-(N,N-dicyclopentylcarboxamido)benzyl]-4-methylimidazo[4,5-c]pyridine] was tested, and the pIC50 [3] was 6.73, the pIC50 ([1]; 1 min) was 7.00 to 8.00 and the pIC50 ([2]; 1 min) was 7.00 to 8.00.

In the case of `O=C(c1ccc(Cn2ccc3ncnc-3c2)cc1)N(C1CCCC1)C1CCCC1` [5-[4-(N,N-dicyclopentylcarboxamido)benzyl]imidazo[4,5-c]pyridine], the pIC50 [3] was 6.51, the pIC50 ([1]; 1 min) was 8.00 to 9.00 and the pIC50 ([2]; 1 min) was 7.00 to 7.30.

Work on `CC(C)N(C(=O)c1ccc(Cn2ccc3ncnc-3c2)cc1)C(C)C` [5-[4-(N,N-diisopropylcarboxamido)benzyl]imidazo[4,5-c]pyridine] yielded a pIC50 [3] of 5.12 and a pIC50 ([2]; 1 min) of 5.00 to 6.00.

`CN(C(=O)c1ccc(Cn2ccc3ncnc-3c2)c(F)c1)C1CCCCC1` [5-[4-(N,methyl-N-cyclohexylcarboxamido)-2-fluorobenzyl]imidazo[4,5-c]pyridine] showed a pIC50 ([1]; 1 min) of 6.00 to 7.00 and a pIC50 ([2]; 1 min) of 5.00 to 6.00.

With `CC(C)(C)CC(C)(C)NC(=O)c1ccc(Cn2ccc3ncnc-3c2)cc1` [5-[4-(N-2(2,4,4-trimethyl)pentylcarboxamide)benzyl]imidazo[4,5-c]pyridine] the pIC50 [3] was 4.65, the pIC50 [1] was 6.00 and the pIC50 [2] was 5.00.

With `CN(C(=O)c1ccc(Cn2ccc3ncnc-3c2)cc1)C1CCC2CCCCC2C1` (centres unmarked) [5-[4-(N-2-decalyl-N-methylcarboxamido)benzyl]imidazo[4,5-c]pyridine] the pIC50 [3] was 4.88 and the pIC50 [1] was 6.00.

Compound `CC1CCCC(N(C(=O)c2ccc(Cn3ccc4ncnc-4c3)cc2)C2CCCC2)C1` (centres unmarked) [5-[4-(N-3-methylcyclohexyl-N-cyclopentylcarboxamido)benzyl]imidazo[4,5-c]pyridine] has a pIC50 [3] of 7.13, a pIC50 ([1]; 1 min) of 8.00 to 9.00 and a pIC50 ([2]; 1 min) of 7.00 to 8.00.

With `CCC(CC)N(C(=O)c1ccc(Cn2ccc3ncnc-3c2)cc1)C1CCCCC1` [5-[4-(N-3-pentyl-N-cyclohexylcarboxamido)benzyl]imidazo[4,5-c]pyridine] the pIC50 ([1]; 1 min) was 7.00 to 8.00 and the pIC50 ([2]; 1 min) was 6.00 to 7.00.

Compound `CC1CCC(N(C(=O)c2ccc(Cn3ccc4ncnc-4c3)cc2)C2CCCC2)CC1` (centres unmarked) [5-[4-(N-4-methylcyclohexyl-N-cyclopentylcarboxamido)benzyl]imidazo[4,5-c]pyridine] has a pIC50 [3] of 6.12, a pIC50 ([1]; 1 min) of 7.00 to 8.00 and a pIC50 ([2]; 1 min) of 6.00 to 7.00.

For `O=C(c1ccc(Cn2ccc3ncnc-3c2)cc1)N(C1CCCCC1)C1CCC1` [5-[4-(N-cyclobutyl-N-cyclohexylcarboxamido)benzyl]imidazo[4,5-c]pyridine], the pIC50 [3] was 7.70, the pIC50 ([1]; 1 min) was 8.00 to 9.00 and the pIC50 ([2]; 1 min) was 7.00 to 8.00.

In the case of `O=C(NC1CCCCC1)c1ccc(Cn2ccc3ncnc-3c2)cc1` [5-[4-(N-cyclohexylcarboxamido)benzyl]imidazo[4,5-c]pyridine], the pIC50 [3] was 4.71, the pIC50 ([1]; 1 min) was 6.00 to 7.00 and the pIC50 [2] was 5.00.

In the case of `O=C(c1ccc(Cn2ccc3ncnc-3c2)c(F)c1)N(C1CCCCC1)C1CCCC1` [5-[4-(N-cyclopentyl-N-cyclohexylcarboxamido)-2-fluorobenzyl]imidazo[4,5-c]pyridine], the pIC50 [3] was 7.12, the pIC50 ([1]; 1 min) was 8.00 to 9.00 and the pIC50 ([2]; 1 min) was 7.00 to 8.00.

Work on `O=C(c1ccc(Cn2ccc3ncnc-3c2)cc1)N(C1CCCCC1)C1CCCC1` [5-[4-(N-cyclopentyl-N-cyclohexylcarboxamido)benzyl]imidazo[4,5-c]pyridine] yielded a pIC50 [3] of 6.49, a pIC50 ([1]; 1 min) of 8.00 to 9.00 and a pIC50 ([2]; 1 min) of 7.00 to 8.00.

`O=C(c1ccc(Cn2ccc3ncnc-3c2)cc1)N(C1CCCCC1)C1CC1` [5-[4-(N-cyclopropyl-N-cyclohexylcarboxamido)benzyl]imidazo[4,5-c]pyridine] was tested, and the pIC50 [3] was 5.43 and the pIC50 ([1]; 1 min) was 6.00 to 7.00.

`CCN(C(=O)c1ccc(Cn2ccc3ncnc-3c2)cc1)C1CCCCC1` [5-[4-(N-ethyl-N-cyclohexylcarboxamido)carboxamido)benzyl]imidazo[4,5-c]pyridine] showed a pIC50 [3] of 5.28, a pIC50 [1] of 6.00 to 7.00 and a pIC50 [2] of 5.00 to 6.00.

Compound `CC(C)CN(C(=O)c1ccc(Cn2ccc3ncnc-3c2)cc1)C1CCCCC1` [5-[4-(N-isobutyl-N-cyclohexylcarboxamido)benzyl]imidazo[4,5-c]pyridine] has a pIC50 [1] of 7.00 and a pIC50 [2] of 6.00.

`CC(C)N(C(=O)c1ccc(Cn2ccc3ncnc-3c2)c(F)c1)C1CCCCC1` [5-[4-(N-isopropyl-N-cyclohexylcarboxamido)-2-fluorobenzyl]imidazo[4,5-c]pyridine] gave a pIC50 ([1]; 1 min) of 7.00 to 8.00 and a pIC50 ([2]; 1 min) of 7.00 to 8.00.

Work on `COc1cc(C(=O)N(C)C2CCCCC2)ccc1Cn1ccc2ncnc-2c1` [5-[4-(N-methyl-N-cyclohexylcarboxamido)-2-methoxybenzyl]imidazo[4,5-c]pyridine] yielded a pIC50 ([1]; 1 min) of 6.00 to 7.00 and a pIC50 ([2]; 1 min) of 5.00 to 6.00.

In the case of `CN(C(=O)c1ccc(Cn2ccc3ncnc-3c2)cc1)C1CCCCC1` [5-[4-(N-methyl-N-cyclohexylcarboxamido)benzyl]imidazo[4,5-c]pyridine], the pIC50 [3] was 4.82, the pIC50 [1] was 6.14 and the pIC50 ([2]; 1 min) was 5.00 to 6.00.

Work on `CCCCCCCCCCNC(=O)c1ccc(Cn2ccc3ncnc-3c2)cc1` [5-[4-(N-n-decylcarboxamido)benzyl]imidazo[4,5-c]pyridine] yielded a pIC50 [3] of 5.01, a pIC50 ([1]; 1 min) of 6.00 to 7.00 and a pIC50 ([2]; 1 min) of 5.00 to 6.00.

Work on `CCCCCCCCCCCCNC(=O)c1ccc(Cn2ccc3ncnc-3c2)cc1` [5-[4-(N-n-dodecylcarboxamido)benzyl]imidazo[4,5-c]pyridine] yielded a pIC50 [3] of 4.92 and a pIC50 ([2]; 1 min) of 6.00 to 7.00.

`CCCCCCCCNC(=O)c1ccc(Cn2ccc3ncnc-3c2)cc1` [5-[4-(N-n-octylcarboxamido)benzyl]imidazo[4,5-c]pyridine] showed a pIC50 [3] of 4.96, a pIC50 ([1]; 1 min) of 6.00 to 7.00 and a pIC50 ([2]; 1 min) of 5.00 to 6.00.

`O=C(c1ccc(Cn2ccc3ncnc-3c2)cc1)N(c1ccccc1)C1CCCC1` [5-[4-(N-phenyl-N-cyclopentylcarboxamido)benzyl]imidazo[4,5-c]pyridine] was tested, and the pIC50 [3] was 5.63, the pIC50 ([1]; 1 min) was 6.00 to 7.00 and the pIC50 [2] was 6.00.

`CCC(C)N(C(=O)c1ccc(Cn2ccc3ncnc-3c2)cc1)C1CCCCC1` (centres unmarked) [5-[4-(N-sec.butyl-N-cyclohexylcarboxamido)benzyl]imidazo[4,5-c]pyridine] showed a pIC50 ([1]; 1 min) of 8.00 to 9.00 and a pIC50 ([2]; 1 min) of 7.00 to 7.30.

For `CC(C)(C)N(C(=O)c1ccc(Cn2ccc3ncnc-3c2)cc1)C1CCCCC1` [5-[4-(N-tert.butyl-N-cyclohexylcarboxamido)benzyl]imidazo[4,5-c]pyridine], the pIC50 ([1]; 1 min) was 8.00 to 9.00 and the pIC50 ([2]; 1 min) was 7.00 to 8.00.

Work on `COc1cc(C(=O)N(C2CCCCC2)C2CCCC2)ccc1Cn1ccc2ncnc-2c1` [5-[4{-(N-cyclopentyl,N-cyclohexyl)carboxamido}-2-methoxybenzyl]imidazo[4,5-c]-pyridine] yielded a pIC50 ([1]; 1 min) of 8.00 to 9.00 and a pIC50 [2] of 8.00.

In the case of `COc1cc(C(=O)N(C(C)C)C2CCCCC2)ccc1Cn1ccc2ncnc-2c1` [5-[4{-(N-isopropyl,N-cyclohexyl)carboxamido}-2-methoxybenzyl]imidazo[4,5-c]pyridine], the pIC50 [3] was 7.18, the pIC50 [1] was 8.00 and the pIC50 ([2]; 1 min) was 7.00 to 8.00.

Work on `CC(C)N(C(=O)c1ccc(Cn2ccc3ncnc-3c2)cc1)C1CCCCC1` [5-[4{-(N-isopropylyl,N-cyclohexyl)carboxamido}benzyl]imidazo[4.5-c]pyridine] yielded a pIC50 [3] of 6.77, a pIC50 [1] of 8.00 and a pIC50 ([2]; 1 min) of 7.00 to 8.00.

For `O=C(c1ccc(Cn2ccc3ncnc-3c2)cc1)N(C1CCCCC1)C1CCCCC1` [5-[(4-(N,N-dicyclohexylcarboxamido)benzyl]imidazo[4,5-c]pyridine], the pIC50 [3] was 5.97, the pIC50 [1] was 8.00 and the pIC50 ([2]; 1 min) was 6.00 to 7.00.

In the case of `Cc1cc(C(=O)N(C2CCCCC2)C2CCCC2)ccc1Cn1ccc2ncnc-2c1` [N-cyclohexyl-N-cyclopentyl-4-(5H)-imidazo[4,5-c]pyridin-5-ylmethyl)-3-methylbenzamide], the pIC50 [3] was 7.74 and the pIC50 [1] was 8.70.

For `COc1cc(Cn2ccc3ncnc-3c2)ccc1C(=O)N(C1CCCC1)C1CC(C)CC(C)C1` (centres unmarked) [N-cyclopentyl-N-(3,5-dimethylcyclohexyl)-4-(5H-imidazo[4,5-c]pyridin-5-ylmethyl)-2-methoxybenzamide], the pIC50 [3] was 9.00 and the pIC50 [1] was 9.00.
